Results: US20250064941A1, “SIGLEC LIGANDS, CONJUGATES, AND METHODS OF USE THEREOF” (Osprey Biopharmaceuticals, Inc., priority 2023, published 2025)

What was measured:
[1] = biological target: T1, mouse Siglec-2-Fc-Avi (CD22) (Mus musculus, UniProt P35329); experiment: SPR binding affinity to mouse CD22; settings: steady-state analysis
T1 construct: made in house
T1 sequence (P35329 22-708 limits assumed): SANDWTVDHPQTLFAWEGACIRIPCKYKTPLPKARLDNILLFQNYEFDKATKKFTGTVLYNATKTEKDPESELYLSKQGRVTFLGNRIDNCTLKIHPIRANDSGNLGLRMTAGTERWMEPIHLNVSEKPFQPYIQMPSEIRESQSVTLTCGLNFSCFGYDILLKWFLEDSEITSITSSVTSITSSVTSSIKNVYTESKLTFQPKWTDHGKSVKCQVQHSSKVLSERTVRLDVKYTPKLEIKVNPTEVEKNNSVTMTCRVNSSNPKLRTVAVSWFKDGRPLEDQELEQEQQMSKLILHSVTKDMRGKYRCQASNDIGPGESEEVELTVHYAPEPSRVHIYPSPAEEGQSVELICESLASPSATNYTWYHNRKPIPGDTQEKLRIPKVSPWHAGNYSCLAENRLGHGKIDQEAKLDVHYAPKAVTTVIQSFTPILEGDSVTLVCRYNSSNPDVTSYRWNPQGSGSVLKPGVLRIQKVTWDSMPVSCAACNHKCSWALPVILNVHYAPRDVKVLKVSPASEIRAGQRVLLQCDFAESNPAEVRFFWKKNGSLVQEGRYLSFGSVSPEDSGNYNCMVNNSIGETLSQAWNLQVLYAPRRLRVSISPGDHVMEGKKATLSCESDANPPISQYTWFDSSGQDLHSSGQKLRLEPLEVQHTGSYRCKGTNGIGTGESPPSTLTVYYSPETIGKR
How it was run: (§1)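 Steady-state fits gave the affinities. Before capture on a streptavidin surface, biotinylated CD22 had native sialic acids stripped (SialoExo, 4 hours, 37° C.). Running buffer: 10 mM HEPES pH 7.5, 150 mM NaCl, 0.05% Tween-20, 1% DMSO, with DMSO solvent correction.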

[2] = biological target: T2, human Siglec-2/CD22 protein (Homo sapiens, UniProt P20273); experiment: SPR binding affinity to human CD22; settings: steady-state analysis
T2 construct: purchased Acro Biosystems SI2-H82E3
T2 sequence (P20273 20-847): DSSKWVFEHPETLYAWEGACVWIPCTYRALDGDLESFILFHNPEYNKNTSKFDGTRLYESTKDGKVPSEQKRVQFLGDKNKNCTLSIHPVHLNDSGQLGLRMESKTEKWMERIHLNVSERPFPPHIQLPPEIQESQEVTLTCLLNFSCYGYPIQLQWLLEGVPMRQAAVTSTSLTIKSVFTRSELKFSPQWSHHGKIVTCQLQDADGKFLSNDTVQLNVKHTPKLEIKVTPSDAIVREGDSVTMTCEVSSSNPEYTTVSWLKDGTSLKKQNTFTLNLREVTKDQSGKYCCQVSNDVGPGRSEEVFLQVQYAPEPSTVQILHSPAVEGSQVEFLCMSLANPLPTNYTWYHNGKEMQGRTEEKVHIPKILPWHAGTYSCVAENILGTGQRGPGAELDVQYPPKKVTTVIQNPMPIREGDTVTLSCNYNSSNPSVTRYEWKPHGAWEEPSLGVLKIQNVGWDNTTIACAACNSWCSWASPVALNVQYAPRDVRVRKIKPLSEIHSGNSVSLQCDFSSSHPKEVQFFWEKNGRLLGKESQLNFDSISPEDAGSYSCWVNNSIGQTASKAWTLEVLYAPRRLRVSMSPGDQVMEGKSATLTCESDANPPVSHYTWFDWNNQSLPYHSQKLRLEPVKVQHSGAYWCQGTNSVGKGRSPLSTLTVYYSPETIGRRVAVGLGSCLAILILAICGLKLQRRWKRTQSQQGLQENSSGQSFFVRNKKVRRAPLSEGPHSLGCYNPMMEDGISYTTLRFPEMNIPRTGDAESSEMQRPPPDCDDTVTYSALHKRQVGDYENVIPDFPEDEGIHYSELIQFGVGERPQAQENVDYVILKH
How it was run: as §1

[3] = biological target: cynomolgus Siglec-2/CD22 (Macaca fascicularis, UniProt A0A2K5WCZ6); experiment: biochemical; type: binding; settings: SPR, steady-state analysis; read-out: Affinity cyno CD22
Sequence of cynomolgus Siglec-2/CD22 (A0A2K5WCZ6 entry or part of it): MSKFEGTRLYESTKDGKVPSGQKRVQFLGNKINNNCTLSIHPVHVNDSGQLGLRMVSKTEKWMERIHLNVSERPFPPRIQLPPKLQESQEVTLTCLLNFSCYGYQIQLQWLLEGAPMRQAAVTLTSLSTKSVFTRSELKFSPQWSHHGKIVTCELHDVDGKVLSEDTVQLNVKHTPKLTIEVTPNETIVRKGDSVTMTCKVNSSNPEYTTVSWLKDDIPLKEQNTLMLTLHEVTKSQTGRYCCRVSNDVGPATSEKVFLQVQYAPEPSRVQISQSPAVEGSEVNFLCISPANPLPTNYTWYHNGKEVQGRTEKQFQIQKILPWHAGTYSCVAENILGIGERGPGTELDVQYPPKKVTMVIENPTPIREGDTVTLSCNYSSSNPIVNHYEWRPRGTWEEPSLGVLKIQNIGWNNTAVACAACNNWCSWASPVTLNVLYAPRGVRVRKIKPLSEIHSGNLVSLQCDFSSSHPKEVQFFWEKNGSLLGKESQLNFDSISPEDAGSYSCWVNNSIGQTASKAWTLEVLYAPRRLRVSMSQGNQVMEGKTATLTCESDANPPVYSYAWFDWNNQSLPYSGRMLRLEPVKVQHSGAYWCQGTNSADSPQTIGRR
How it was run: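 SPR with desialylated (SialoExo, 4 h, 37° C.) cynomolgus CD22 amine-coupled to a CM5 chip. Running buffer 10 mM HEPES, 150 mM NaCl, 0.05% Tween-20, pH 7.5, 1% DMSO, with solvent correction; 120 s dissociation. Affinities from steady-state analysis.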

| SMILES | Kd [1] | Kd [2] | Kd [3] |
| --- | --- | --- | --- |
| C#CCOCCOCCO[C@]1(C(=O)O)C[C@H](O)[C@@H](NC(=O)CO)[C@H]([C@H](O)[C@H](O)CNC(=O)Cc2ccc(-c3cccc(C(=O)NC)c3)cc2)O1 [Compound 80, (2R,4S,5R,6R)-6-((1R,2R)-1,2-dihydroxy-3-(2-(3′-(methylcarbamoyl)-[1,1′-biphenyl]-4-yl)acetamido)propyl)-4-hydroxy-5-(2-hydroxyacetamido)-2-(2-(2-(prop-2-yn-1-yloxy)ethoxy)ethoxy)tetrahydro-2H-pyran-2-carboxylic acid] | 1 to 10 µM | 1 to 10 µM | 1 to 10 µM |
| C#CCOCCOCCO[C@]1(C(=O)O)C[C@H](O)[C@@H](NC(=O)CO)[C@H]([C@H](O)[C@H](O)CNC(=O)Cc2ccc(O)c(Cl)c2)O1 [Compound 197, (2R,4S,5R,6R)-6-((1R,2R)-3-(2-(3-chloro-4-hydroxyphenyl)acetamido)-1,2-dihydroxypropyl)-4-hydroxy-5-(2-hydroxyacetamido)-2-(2-(2-(prop-2-yn-1-yloxy)ethoxy)ethoxy)tetrahydro-2H-pyran-2-carboxylic acid] | > 10 µM | > 10 µM | > 10 µM |
| C#CCCOc1ccc(CO[C@]2(C(=O)O)C[C@H](O)[C@@H](NC(C)=O)[C@H]([C@H](O)[C@H](O)CNC(=O)c3cccc(Oc4ccccc4)c3)O2)cc1 [Compound 22, (2R,4S,5R,6R)-5-acetamido-2-((4-(but-3-yn-1-yloxy)benzyl)oxy)-6-((1R,2R)-1,2-dihydroxy-3-(3-phenoxybenzamido)propyl)-4-hydroxytetrahydro-2H-pyran-2-carboxylic acid] | > 10 µM | < 1 µM | 1 to 10 µM |
| C#CCCOc1ccc(CO[C@]2(C(=O)O)C[C@H](O)[C@@H](NC(=O)CO)[C@H]([C@H](O)[C@H](O)CNC(=O)C3(c4ccccc4)CC3)O2)cc1 [Compound 173, (2R,4S,5R,6R)-2-((4-(but-3-yn-1-yloxy)benzyl)oxy)-6-((1R,2R)-1,2-dihydroxy-3-(1-phenylcyclopropane-1-carboxamido)propyl)-4-hydroxy-5-(2-hydroxyacetamido)tetrahydro-2H-pyran-2-carboxylic acid] | > 10 µM | 1 to 10 µM | 1 to 10 µM |
| CCCNC(=O)CCCCCCO[C@]1(C(=O)O)C[C@H](O)[C@@H](NC(=O)CO)[C@H]([C@H](O)[C@H](O)CNC(=O)Cc2cccc(O)c2)O1 [Compound 207, (2R,4S,5R,6R)-6-((1R,2R)-1,2-dihydroxy-3-(2-(3-hydroxyphenyl)acetamido)propyl)-4-hydroxy-5-(2-hydroxyacetamido)-2-((7-oxo-7-(propylamino)heptyl)oxy)tetrahydro-2H-pyran-2-carboxylic acid] | 1 to 10 µM | 1 to 10 µM | 1 to 10 µM |
| C#CCCCCCCc1cn([C@]2(C(=O)O)C[C@H](O)[C@@H](NC(=O)CO)[C@H]([C@H](O)[C@H](O)CNC(=O)Cc3cccc(O)c3)O2)nn1 [Compound 147, (2R,4S,5R,6R)-6-((1R,2R)-1,2-dihydroxy-3-(2-(3-hydroxyphenyl)acetamido)propyl)-4-hydroxy-5-(2-hydroxyacetamido)-2-(4-(oct-7-yn-1-yl)-1H-1,2,3-triazol-1-yl)tetrahydro-2H-pyran-2-carboxylic acid] | 1 to 10 µM | 1 to 10 µM | 1 to 10 µM |
| C#CCCOc1ccc(CS[C@]2(C(=O)O)C[C@H](O)[C@@H](NC(=O)CO)[C@H]([C@H](O)[C@H](O)CNC(=O)Cc3cccc(O)c3)O2)cc1 [Compound 149, (2S,4S,5R,6R)-2-((4-(but-3-yn-1-yloxy)benzyl)thio)-6-((1R,2R)-1,2-dihydroxy-3-(2-(3-hydroxyphenyl)acetamido)propyl)-4-hydroxy-5-(2-hydroxyacetamido)tetrahydro-2H-pyran-2-carboxylic acid] | 1 to 10 µM | < 1 µM | 1 to 10 µM |
| C#CCOCCOCCO[C@]1(C(=O)O)C[C@H](O)[C@@H](NC(=O)CO)[C@H]([C@H](O)[C@H](O)CNC(=O)c2ccccc2O)O1 [Compound 28, (2R,4S,5R,6R)-6-((1R,2R)-1,2-dihydroxy-3-(2-hydroxybenzamido)propyl)-4-hydroxy-5-(2-hydroxyacetamido)-2-(2-(2-(prop-2-yn-1-yloxy)ethoxy)ethoxy)tetrahydro-2H-pyran-2-carboxylic acid] | > 10 µM | > 10 µM | > 10 µM |
| C#CCOCCOCCO[C@]1(C(=O)O)C[C@H](O)[C@@H](NC(=O)CO)[C@H]([C@H](O)[C@H](O)CNC(=O)c2ccccc2)O1 [Compound 202, (2R,4S,5R,6R)-6-((1R,2R)-3-benzamido-1,2-dihydroxypropyl)-4-hydroxy-5-(2-hydroxyacetamido)-2-(2-(2-(prop-2-yn-1-yloxy)ethoxy)ethoxy)tetrahydro-2H-pyran-2-carboxylic acid] | 1 to 10 µM | > 10 µM | < 1 µM |
| CC(=O)NCCOCCOCCOCCOCCC(=O)NCCOCCOCCO[C@]1(C(=O)O)C[C@H](O)[C@@H](NC(C)=O)[C@H]([C@H](O)[C@H](O)CNC(=O)Cc2ccc(Cl)cc2)O1 [Compound 274, (2R,4S,5R,6R)-5-acetamido-6-((1R,2R)-3-(2-(4-chlorophenyl)acetamido)-1,2-dihydroxypropyl)-2-((2,18-dioxo-6,9,12,15,22,25-hexaoxa-3,19-diazaheptacosan-27-yl)oxy)-4-hydroxytetrahydro-2H-pyran-2-carboxylic acid] | > 10 µM | > 10 µM | > 10 µM |
| CC(=O)NCCOCCOCCOCCOCc1cn(CCCCCCO[C@]2(C(=O)O)C[C@H](O)[C@@H](NC(=O)CO)[C@H]([C@H](O)[C@H](O)CNC(=O)Cc3ccc(C(F)F)cc3)O2)nn1 [Compound 252, (2R,4S,5R,6R)-6-((1R,2R)-3-(2-(4-(difluoromethyl)phenyl)acetamido)-1,2-dihydroxypropyl)-4-hydroxy-5-(2-hydroxyacetamido)-2-((6-(4-(15-oxo-2,5,8,11-tetraoxa-14-azahexadecyl)-1H-1,2,3-triazol-1-yl)hexyl)oxy) tetrahydro-2H-pyran-2-carboxylic acid] | 1 to 10 µM | < 1 µM | < 1 µM |
| C#CCOCCOCCOCCOCCC(=O)NCCOCCOCCO[C@]1(C(=O)O)C[C@H](O)[C@@H](NC(=O)CO)[C@H]([C@H](O)[C@H](O)CNC(=O)Cc2ccc(Cl)cc2)O1 [Compound 111, (2R,4S,5R,6R)-6-((1R,2R)-3-(2-(4-chlorophenyl)acetamido)-1,2-dihydroxypropyl)-4-hydroxy-5-(2-hydroxyacetamido)-2-((10-oxo-3,6,13,16,19,22-hexaoxa-9-azapentacos-24-yn-1-yl)oxy)tetrahydro-2H-pyran-2-carboxylic acid] | 1 to 10 µM | 1 to 10 µM | < 1 µM |
| C#CCCOc1ccc(CO[C@]2(C(=O)O)C[C@H](O)[C@@H](NC(=O)CO)[C@H]([C@H](O)[C@H](O)CNC(=O)Cc3ccc4nn[nH]c4c3)O2)cc1 [Compound 9, (2R,4S,5R,6R)-6-((1R,2R)-3-(2-(1H-benzo[d][1,2,3]triazol-6-yl)acetamido)-1,2-dihydroxypropyl)-2-((4-(but-3-yn-1-yloxy)benzyl)oxy)-4-hydroxy-5-(2-hydroxyacetamido)tetrahydro-2H-pyran-2-carboxylic acid] | 1 to 10 µM | 1 to 10 µM | 1 to 10 µM |
